# Measured values from ChEMBL document CHEMBL5113383, “Application of the All-Hydrocarbon Stapling Technique in the Design of Membrane-Active Peptides” (J Med Chem, 2022).
# Assay: Hemolytic activity in rabbit erythrocytes
# Type: toxicity, cell-based, Oryctolagus cuniculus, Erythrocyte
row,Compound,HC50 [nM]
1,CC[C@H](C)[C@H](NC(=O)CNC(C)=O)C(=O)NCC(=O)N[C@@H](C)C(=O)N[C@H](C(=O)N[C@@H](CC(C)C)C(=O)N[C@@H](CCCCN)C(=O)N[C@H](C(=O)N[C@@H](CC(C)C)C(=O)N[C@H](C(=O)N[C@H](C(=O)NCC(=O)N[C@@H](CC(C)C)C(=O)N1CCC[C@H]1C(=O)N[C@@H](C)C(=O)N[C@@H](CC(C)C)C(=O)N[C@H](C(=O)N[C@@H](CO)C(=O)N[C@@H](Cc1c[nH]c2ccccc12)C(=O)N[C@H](C(=O)N[C@@H](CCCCN)C(=O)N[C@@H](CCCNC(=N)N)C(=O)N[C@@H](CCCCN)C(=O)N[C@@H](CCCNC(=N)N)C(=O)N[C@@H](CCC(N)=O)C(=O)N[C@@H](CCC(N)=O)C(N)=O)[C@@H](C)CC)[C@@H](C)CC)[C@@H](C)CC)[C@@H](C)O)C(C)C)C(C)C,2600
2,CC[C@H](C)[C@H](NC(=O)CNC(C)=O)C(=O)NCC(=O)N[C@@H](C)C(=O)N[C@H](C(=O)N[C@@H](CC(C)C)C(=O)N[C@@H](CCCCN)C(=O)N[C@H](C(=O)N[C@@H](CC(C)C)C(=O)N[C@H](C(=O)N[C@H](C(=O)NCC(=O)N[C@@H](CC(C)C)C(=O)N1CCC[C@H]1C(=O)N[C@]1(C)CCCCCC/C=C\CCC[C@@](C)(C(=O)N[C@@H](CCCCN)C(=O)N[C@@H](CCCNC(=N)N)C(=O)N[C@@H](CCC(N)=O)C(=O)N[C@@H](CCC(N)=O)C(N)=O)NC(=O)[C@H](CCCCN)NC(=O)[C@H]([C@@H](C)CC)NC(=O)[C@H](Cc2c[nH]c3ccccc23)NC(=O)[C@H](CO)NC(=O)[C@H]([C@@H](C)CC)NC(=O)[C@H](CC(C)C)NC1=O)[C@@H](C)O)[C@@H](C)O)C(C)C)C(C)C,700
